Source: patent US6506772B1, “Substituted [1,2,4]triazolo[1,5a]pyridine derivatives with activity as adenosine receptor ligands” (Hoffmann-La Roche Inc., priority 2000, dated 2003)

Key:
[1] = molecular target: T1, HA1 adenosine receptor (Homo sapiens, UniProt P30542); assay: Human adenosine A1 receptor affinity (Ki hA1); type: binding; settings: affinity to human adenosine A1 receptor
T1 sequence (P30542 1-326): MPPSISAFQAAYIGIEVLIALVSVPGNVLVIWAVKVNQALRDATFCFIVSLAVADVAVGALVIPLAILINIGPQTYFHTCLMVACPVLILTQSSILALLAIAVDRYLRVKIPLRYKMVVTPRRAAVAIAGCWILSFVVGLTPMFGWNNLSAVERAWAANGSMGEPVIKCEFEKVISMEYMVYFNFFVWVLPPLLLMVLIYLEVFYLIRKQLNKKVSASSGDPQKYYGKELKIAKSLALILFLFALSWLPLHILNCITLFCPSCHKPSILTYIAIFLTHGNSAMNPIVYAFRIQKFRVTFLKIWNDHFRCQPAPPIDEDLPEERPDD

[2] = molecular target: T2, human adenosine A2A receptor (Homo sapiens, UniProt P29274); assay: Human adenosine A2A receptor [3H]-SCH-58261 binding assay; settings: for Ki: affinity to human adenosine A2A receptor, read-out: Ki HA2A; for selectivity (A1/A2a): calculated ratio of the affinity to the HA1 receptor to the HA2a receptor
T2 construct: expressed in transfected cells; host or cells: CHO cells, Semliki Forest virus expression system; membrane preparation
T2 sequence (P29274 whole entry): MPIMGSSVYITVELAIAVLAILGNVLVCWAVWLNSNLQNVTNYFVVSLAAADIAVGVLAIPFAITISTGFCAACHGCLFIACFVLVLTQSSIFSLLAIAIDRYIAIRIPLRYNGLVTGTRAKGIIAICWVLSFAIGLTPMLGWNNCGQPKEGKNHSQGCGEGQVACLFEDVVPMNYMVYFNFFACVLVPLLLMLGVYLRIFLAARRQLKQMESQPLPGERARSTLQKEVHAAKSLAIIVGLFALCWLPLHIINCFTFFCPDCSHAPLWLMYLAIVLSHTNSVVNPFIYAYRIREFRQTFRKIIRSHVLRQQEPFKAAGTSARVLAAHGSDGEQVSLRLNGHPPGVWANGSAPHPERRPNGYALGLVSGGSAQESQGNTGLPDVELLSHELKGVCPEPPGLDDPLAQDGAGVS

SMILES	Ki [1]	Ki [2]	selectivity (A1/A2a) [2]
COc1ccc(-c2nc3cc(C(=O)N(C)CCc4ccccc4)cc(N)n3n2)s1 [Example 77, 5-Amino-2-(5-methoxy-thiophen-2-yl)-[1,2,4]triazolo[1,5-a]pyridine-7-carboxylic acid methyl-phenethyl-amide]	295 nM	116 nM	2.5
COc1ccc(-c2nc3cc(C(=O)NCCc4ccccc4Cl)cc(N)n3n2)s1 [Example 78, 5-Amino-2-(5-methoxy-thiophen-2-yl)-[1,2,4]triazolo[1,5-a]pyridine-7-carboxylic acid [2-(2-chloro-phenyl)-ethyl]-amide]	97.4 nM	389 nM	0.3
Nc1cc(C(=O)NCc2ccccc2Br)cc2nc(-c3cccnc3)nn12 [Example 79, 5-Amino-2-pyridin-3-yl-[1,2,4]triazolo[1,5-a]pyridine-7-carboxylic acid 2-bromo-benzylamide]	1400 nM	152 nM	9.2
CCCCNC(=O)c1cc(N)n2nc(-c3cccnc3)nc2c1 [Example 80, 5-Amino-2-pyridin-3-yl-[1,2,4]triazolo[1,5-a]pyridine-7-carboxylic acid butylamide]	3770 nM	282 nM	13.4
Nc1cc(C(=O)NC2CCC2)cc2nc(-c3cccnc3)nn12 [Example 81, 5-Amino-2-pyridin-3-yl-[1,2,4]triazolo[1,5-a]pyridine-7-carboxylic acid cyclobutylamide]	4390 nM	315 nM	13.9
CCCNC(=O)c1cc(N)n2nc(-c3cccnc3)nc2c1 [Example 82, 5-Amino-2-pyridin-3-yl-[1,2,4]triazolo[1,5-a]pyridine-7-carboxylic acid propylamide]	5850 nM	309 nM	18.9
Nc1cc(C(=O)NCc2ccccc2Cl)cc2nc(-c3ccc[nH]3)nn12 [Example 83, 5-Amino-2-(1H-pyrrol-2-yl)-[1,2,4]triazolo[1,5-a]pyridine-7-carboxylic acid 2-chloro-benzylamide]	1500 nM	130 nM	11.6
CCCCN(Cc1ccccc1)C(=O)c1cc(N)n2nc(-c3ccc[nH]3)nc2c1 [Example 84, 5-Amino-2-(1H-pyrrol-2-yl)-[1,2,4]triazolo[1,5-a]pyridine-7-carboxylic acid benzyl-butyl-amide]	4960 nM	294 nM	16.9
CCN(Cc1ccccc1F)C(=O)c1cc(N)n2nc(-c3ccc[nH]3)nc2c1 [Example 85, 5-Amino-2-(1H-pyrrol-2-yl)-[1,2,4]triazolo[1,5-a]pyridine-7-carboxylic acid ethyl-(2-fluoro-benzyl)-amide]	1400 nM	169 nM	8.3
CC(C)N(Cc1ccccc1)C(=O)c1cc(N)n2nc(-c3cccnc3)nc2c1 [Example 86, 5-Amino-2-pyridin-3-yl-[1,2,4]triazolo[1,5-a]pyridine-7-carboxylic acid benzyl-isopropyl-amide]	819 nM	252 nM	3.2
COc1ccccc1CNC(=O)c1cc(N)n2nc(-c3cccnc3)nc2c1 [Example 87, 5-Amino-2-pyridin-3-yl-[1,2,4]triazolo[1,5-a]pyridine-7-carboxylic acid 2-methoxy-benzylamide]	1260 nM	240 nM	5.2
CCN(Cc1ccccc1)C(=O)c1cc(N)n2nc(-c3cccnc3)nc2c1 [Example 88, 5-Amino-2-pyridin-3-yl-[1,2,4]triazolo[1,5-a]pyridine-7-carboxylic acid benzyl-ethyl-amide]	993 nM	278 nM	3.6
CCCCN(Cc1ccccc1)C(=O)c1cc(N)n2nc(-c3cccnc3)nc2c1 [Example 89, 5-Amino-2-pyridin-3-yl-[1,2,4]triazolo[1,5-a]pyridine-7-carboxylic acid benzyl-butyl-amide]	900 nM	174 nM	5.2
Nc1cc(C(=O)N(CCc2ccccc2)Cc2ccccc2)cc2nc(-c3cccnc3)nn12 [Example 90, 5-Amino-2-pyridin-3-yl-[1,2,4]triazolo[1,5-a]pyridine-7-carboxylic acid benzyl-phenethyl-amide]	239 nM	144 nM	1.7
CCN(Cc1ccccc1F)C(=O)c1cc(N)n2nc(-c3cccnc3)nc2c1 [Example 91, 5-Amino-2-pyridin-3-yl-[1,2,4]triazolo[1,5-a]pyridine-7-carboxylic acid ethyl-(2-fluoro-benzyl)-amide]	815 nM	144 nM	5.7
COc1ccccc1CNC(=O)c1cc(N)n2nc(-c3ccc[nH]3)nc2c1 [Example 93, 5-Amino-2-(1H-pyrrol-2-yl)-[1,2,4]triazolo[1,5-a]pyridine-7-carboxylic acid 2-methoxy-benzylamide]	4860 nM	304 nM	16.0
Nc1cc(C(=O)N(CCc2ccccc2)Cc2ccccc2)cc2nc(-c3ccc[nH]3)nn12 [Example 96, 5-Amino-2-(1H-pyrrol-2-yl)-[1,2,4]triazolo[1,5-a]pyridine-7-carboxylic acid benzyl-phenethyl-amide]	729 nM	217 nM	3.4

More lines, now with the values ahead:

Ki [1]	Ki [2]	selectivity (A1/A2a) [2]	SMILES
2560 nM	235 nM	10.9	COc1cc(CNC(=O)c2cc(N)n3nc(-c4nccs4)nc3c2)cc(OC)c1OC [Example 97, 5-Amino-2-thiazol-2-yl-[1,2,4]triazolo[1,5-a]pyridine-7-carboxylic acid 3,4,5-trimethoxy-benzylamide]
767 nM	50.5 nM	15.2	CCCCNC(=O)c1cc(N)n2nc(-c3ccoc3)nc2c1 [Example 98, 5-Amino-2-furan-3-yl-[1,2,4]triazolo[1,5-a]pyridine-7-carboxylic acid butylamide]
6100 nM	233 nM	26.2	Nc1cc(C(=O)N2CCCC2)cc2nc(-c3ccoc3)nn12 [Example 99, (5-Amino-2-furan-3-yl-[1,2,4]triazolo[1,5-a]pyridin-7-yl)-pyrrolidin-1-yl-methanone]
529 nM	15.5 nM	34.1	Cc1ccc(-c2nc3cc(C(=O)N(C)C4CCCCC4)cc(N)n3n2)o1 [Example 100, 5-Amino-2-(5-methyl-furan-2-yl)-[1,2,4]triazolo[1,5-a]pyridine-7-carboxylic acid cyclohexyl-methyl-amide]
701 nM	33.3 nM	21.1	CCN(CC)C(=O)c1cc(N)n2nc(-c3ccccc3O)nc2c1 [Example 101, 5-Amino-2-(2-hydroxy-phenyl)-[1,2,4]triazolo[1,5-a]pyridine-7-carboxylic acid diethylamide]
978 nM	57.6 nM	17.0	Nc1cc(C(=O)N2CCCCC2)cc2nc(-c3ccccc3O)nn12 [Example 102, [5-Amino-2-(2-hydroxy-phenyl)-[1,2,4]triazolo[1,5-a]pyridin-7-yl]-piperidin-1-yl-methanone]
3530 nM	101 nM	35.1	Nc1cc(C(=O)N2CCCCC2)cc2nc(-c3nccs3)nn12 [Example 103, (5-Amino-2-thiazol-2-yl-[1,2,4]triazolo[1,5-a]pyridin-7-yl)-piperidin-1-yl-methanone]
223 nM	4.9 nM	46.0	CCCCNC(=O)c1cc(N)n2nc(-c3ccco3)nc2c1 [Example 104, 5-Amino-2-furan-2-yl-[1,2,4]triazolo[1,5-a]pyridine-7-carboxylic acid butylamide]
2380 nM	50.9 nM	46.9	CCN(CC)C(=O)c1cc(N)n2nc(-c3ccco3)nc2c1 [Example 105, 5-Amino-2-furan-2-yl-[1,2,4]triazolo[1,5-a]pyridine-7-carboxylic acid diethylamide]
6200 nM	299 nM	20.7	Nc1cc(C(=O)N2CCOCC2)cc2nc(-c3ccco3)nn12 [Example 108, (5-Amino-2-furan-2-yl-[1,2,4]triazolo[1,5-a]pyridin-7-yl)-morpholin-4-yl-methanone]
58.7 nM	2.9 nM	20.2	Nc1cc(C(=O)NCc2ccccc2Cl)cc2nc(-c3ccco3)nn12 [Example 109, 5-Amino-2-furan-2-yl-[1,2,4]triazolo[1,5-a]pyridine-7-carboxylic acid 2-chloro-benzylamide]
64.2 nM	2.6 nM	24.5	Nc1cc(C(=O)NCc2ccccc2Br)cc2nc(-c3ccco3)nn12 [Example 110, 5-Amino-2-furan-2-yl-[1,2,4]triazolo[1,5-a]pyridine-7-carboxylic acid 2-bromo-benzylamide]
1220 nM	45.2 nM	27.1	COc1cc(CNC(=O)c2cc(N)n3nc(-c4ccco4)nc3c2)cc(OC)c1OC [Example 111, 5-Amino-2-furan-2-yl-[1,2,4]triazolo[1,5-a]pyridine-7-carboxylic acid 3,4,5-trimethoxy-benzylamide]
